Values joined by “and” are separate entries in the source; they are usually repeats but may differ in a detail not shown here. Equal values may be shown once. “Also recorded” adds a separate entry of the source.
Legend:
sfGFP^151(AXC) gene = assay: UBP retention in the sfGFP gene by streptavidin gel shift assay (in vivo screen of dXTPs); type: cell-based, E. coli; settings: dTPT3TP 10 μM, strain YZ3
Description: (§1) These plasmids were used to transform E. coli expressing the nucleoside triphosphate transporter PtNTT2 (strain YZ38) and harboring a plasmid encoding Mb PylRS. After transformation, colonies were selected and grown to an OD600˜1.0 in liquid media supplemented with dTPT3TP (10 μM) and one of seven different dXTPs (FIG. 2) added at varying concentrations (150 μM, 10 μM, or 5 μM). Cells were then diluted into fresh expression media containing the same unnatural deoxyribonucleotides as well as NaMTP (250 μM), TPT3TP (30 μM), and AzK (10 mM). After a brief incubation, T7 RNAP and tRNAPyl(GYT) expression was induced by the addition of isopropyl-β-d-thiogalactoside (IPTG, 1 mM). After an additional 1 h of incubation, the expression of sfGFP^151(AXC) was initiated by the addition of anhydrotetracycline (aTc, 100 ng/mL).
(§2) Analysis of PCR products. After 2.5 h, plasmids were isolated and then the genes of interest were independently PCR amplified using d5SICSTP and a biotinylated analog of dNaMTP7. The resulting PCR product was analyzed via a gel mobility shift assay using streptavidin to quantify the UBP retained as a percent shift of the total amplified product (hereafter referred to as the streptavidin gel shift assay) (FIG. 3A and FIG. 3B).
In vivo Translation Screen of dXTPs. An overnight culture of the SSO strain YZ3 carrying the pGEX-MbPylRS TetR plasmid was grown in 2×YT supplemented with 50 mM potassium phosphate, […] chloramphenicol and 100 μg/mL carbenicillin (herein referred to in this section as “media”), then diluted back to an OD600 of 0.03 in the same media and grown to an OD600 of 0.4 to 0.6. The culture was then chilled with shaking over ice-water for 15 minutes then pelleted by centrifugation at 3,200×g for 10 min. Cells were then resuspended and washed with ice-cold ddH2O twice then resuspended in ice-cold ddH2O to an OD600 of 55-65. The electrocompetent cells (50 μL) and 1 ng of Golden Gate assembled plasmid with the UBP within the sfGFP and tRNAPyl genes (see Golden Gate Assembly of Plasmids) were transferred to a pre-chilled electroporation cuvette (0.2-cm-gap), then electroporated (Gene Pulser II; Bio-Rad) according to manufacturer's recommendations (voltage […], capacitor 2.5 μF, resistor 200Ω), and then immediately diluted with 950 μL of media. An aliquot (40 μL) of the transformation was then diluted five-fold in media supplemented with dNaMTP (150 μM) and dTPT3TP (10 μM) for a final volume of 200 μL then allowed to recover for 1 h shaking at 37° C. […] The culture was monitored for cell growth (Envision 2103 Multilabel Plate Reader with a 590/20 nm filter) and then collected at an OD600˜1.0. […]

E. coli strain YZ3 = assay: Cell growth / viability in the in vivo screen of dXTPs; type: cell-based; settings: dXTP 5 μM
Description: as §1, with “After an additional 1 h of incubation, the expression of sfGFP^151(AXC) was initiated by the addition of anhydrotetracycline (aTc, 100 ng/mL).” left out
Analysis of reporter protein production. To characterize the amount of protein produced, bulk culture fluorescence normalized to cell growth was measured 2.5 h after the induction of protein expression (FIG. 3C). […] While similar at high concentrations, at lower concentrations the use of each dXTP analog results in a greater AzK-dependent increase in fluorescence than does the use of dNaMTP.
Ten-fold dilutions of the glycerol stock were re-plated onto solid growth media supplemented with dNaMTP (150 μM), dTPT3TP (10 μM), and 2% w/v agar, then grown at 37° C. overnight. […] From this point on, cells were monitored for growth and fluorescence. […]

tRNA^Pyl(GYT) gene = assay: UBP retention in the tRNA gene by streptavidin gel shift assay (in vivo screen of dXTPs); type: cell-based, E. coli; settings: dTPT3TP 10 μM, strain YZ3
Description: as §1, §2
In vivo Translation Screen of dXTPs. An overnight culture of the SSO strain YZ3 carrying the pGEX-MbPylRS TetR plasmid was grown in 2×YT supplemented with 50 mM potassium phosphate, […] chloramphenicol and 100 μg/mL carbenicillin (herein referred to in this section as “media”), then diluted back to an OD600 of 0.03 in the same media and grown to an OD600 of 0.4 to 0.6. The culture was then chilled with shaking over ice-water for 15 minutes then pelleted by centrifugation at 3,200×g for 10 min. Cells were then resuspended and washed with ice-cold ddH2O twice then resuspended in ice-cold ddH2O to an OD600 of 55-65. […] The culture was monitored for cell growth (Envision 2103 Multilabel Plate Reader with a 590/20 nm filter) and then collected at an OD600˜1.0. […]

sfGFP^151(AXC) [1] = assay: Fidelity of AzK incorporation into sfGFP, DBCO-TAMRA gel shift / western blot (in vivo screen of dXTPs); type: cell-based, E. coli
Description: Analysis of reporter protein fidelity. To directly assess the fidelity of unnatural protein production, cells were harvested 2.5 h after the induction of protein expression and the sfGFP produced was purified and subjected to a strain-promoted azide-alkyne cycloaddition reaction with dibenzocyclooctyne (DBCO) linked to a TAMRA dye by four PEG units. In addition to tagging the proteins containing the ncAA with a detectable fluorophore, conjugation produces a shift in electrophoretic migration, allowing quantification of protein containing AzK as a percentage of the total protein produced (i.e. fidelity of ncAA incorporation; FIG. 3D).
Ten-fold dilutions of the glycerol stock were re-plated onto solid growth media supplemented with dNaMTP (150 μM), dTPT3TP (10 μM), and 2% w/v agar, then grown at 37° C. overnight. Single colonies were picked and grown in growth media (300 μL) supplemented with corresponding dXTP (various concentrations), and dTPT3TP (10 μM), then monitored for cell growth and collected at an OD600˜1.0. Once all samples were collected, samples were left on ice overnight. The samples were then re-diluted to OD600˜0.1, to a final volume of 300 μL and provided with the corresponding dXTP (various concentrations), and dTPT3TP (10 μM). The remaining culture not used was pelleted and stored at −80° C. for subsequent plasmid isolation using the ZR Plasmid Prep Kit (Zymo Research) to determine UBP retention. When cultures reached an OD600˜0.4-0.6, they were provided with NaMTP (250 μM) and TPT3TP (30 μM), and AzK (10 mM) (or ddH2O for cultures grown in the absence of AzK). Samples were shielded from light after addition of AzK to prevent photodegradation. These samples were then grown at 37° C. for 20 min before adding 1 mM IPTG and grown at 37° C. for an additional 1 h to induce T7 RNAP and transcription of tRNAPyl and PylRS. From this point on, cells were monitored for growth and fluorescence. Expression of sfGFP was then induced with anhydrotetracycline (100 ng/mL).
Affinity Purification of sfGFP. Cell pellets collected from translation experiments were resuspended in BugBuster (100 μL 1×, EMD Millipore) and shaken at room temperature for 15 min. The cell lysate was then diluted with Buffer W (380 μL; 50 mM HEPES pH 8, 150 mM NaCl, 1 mM EDTA) and magnetic Strep-Tactin beads (20 μL, 5% (v/v) suspension of MagStrep ‘type3’ XT beads, IBA Lifesciences) equilibrated in Buffer W, were added. The mixture was gently inverted at 4° C. for 30 min. […] Purified proteins were quantified using the Qubit Protein Assay Kit (Thermo Fisher Scientific). […]

sfGFP^151(AXC) [2] = assay: Bulk culture sfGFP fluorescence normalized to cell growth (in vivo screen of dXTPs); type: cell-based, E. coli; settings: for sfGFP fluorescence normalized to cell growth: AzK added
Description: as §1
Analysis of reporter protein production. To characterize the amount of protein produced, bulk culture fluorescence normalized to cell growth was measured 2.5 h after the induction of protein expression (FIG. 3C). […] Cells growth was not observed when provided with only 5 μM dNaMTP. While similar at high concentrations, at lower concentrations the use of each dXTP analog results in a greater AzK-dependent increase in fluorescence than does the use of dNaMTP.
Ten-fold dilutions of the glycerol stock were re-plated onto solid growth media supplemented with dNaMTP (150 μM), dTPT3TP (10 μM), and 2% w/v agar, then grown at 37° C. overnight. Single colonies were picked and grown in growth media (300 μL) supplemented with corresponding dXTP (various concentrations), and dTPT3TP (10 μM), then monitored for cell growth and collected at an OD600˜1.0. Once all samples were collected, samples were left on ice overnight. The samples were then re-diluted to OD600˜0.1, to a final volume of 300 μL and provided with the corresponding dXTP (various concentrations), and dTPT3TP (10 μM). […] From this point on, cells were monitored for growth and fluorescence. […]

[3] = dXTP 5 μM (lowest concentration)

| SMILES | UBP retention in the sfGFP^151(AXC) gene (sfGFP^151(AXC) gene; dXTP 10 μM) [%] | UBP retention in the sfGFP^151(AXC) gene (sfGFP^151(AXC) gene; dXTP 150 μM) [%] | Cell growth / survival (E. coli strain YZ3) | UBP retention in the tRNA^Pyl(GYT) gene (tRNA^Pyl(GYT) gene; dXTP 10 μM) [%] | Fidelity of ncAA incorporation (protein shift) (sfGFP^151(AXC) [1]; dXTP 10 μM) | sfGFP fluorescence normalized to cell growth (sfGFP^151(AXC) [2]; dXTP 150 or 10 μM) | UBP retention in the sfGFP^151(AXC) gene (sfGFP^151(AXC) gene; [3]) | UBP retention in the tRNA^Pyl(GYT) gene (tRNA^Pyl(GYT) gene; [3]) [%] | Fidelity of ncAA incorporation (protein shift) (sfGFP^151(AXC) [1]; dXTP 5 μM) | Quantity of pure unnatural protein produced (sfGFP^151(AXC) [1]; especially at lower concentrations) | sfGFP fluorescence normalized to cell growth (sfGFP^151(AXC) [2]; dXTP 5 μM) | AzK-dependent increase in fluorescence (sfGFP^151(AXC) [2]; lower dXTP concentrations, compared with dNaMTP) |
| --- | --- | --- | --- | --- | --- | --- | --- | --- | --- | --- | --- | --- |
| COc1cc2ccccc2cc1[C@H]1C[C@H](O)[C@@H](COP(=O)(O)OP(=O)(O)OP(=O)(O)O)O1 [dNaMTP] | 73 | 99 | not observed; also recorded: did not survive | 71 | dropped precipitously | significantly less fluorescence at 10 μM than at 150 μM | – | – | – | – | – | – |
| COc1cc(C)c(F)cc1[C@H]1C[C@H](O)[C@@H](COP(=O)(O)OP(=O)(O)OP(=O)(O)O)O1 [d5FMTP] | 96 | – | – | 82 | remained high | – | 94% and ~93% | 83 | remained similar to that observed at 10 μM | greatest quantity of pure unnatural protein | remained the same | largest AzK-dependent increase in fluorescence |
